Results taken from US7867990B2, “Steroid hormone products and methods for preparing them” (Ortho-McNeil Pharmaceutical, Inc., priority 2001, dated 2011).
One block for each compound: values may come before it.

Key:
[1] = Dissolution of crystalline and non-crystalline norgestimate (USP Apparatus 2, 75 rpm, 600 ml of 0.05% Tween 20); assay type: physicochemical; conditions: 600 ml 0.05% Tween 20
Protocol: Employing the current dissolution standard (USP Apparatus 2, 75 rpm, 600 ml of 0.05% Tween 20), the dissolution rates and extent of dissolution for individual samples of both crystalline and non-crystalline norgestimate were compared. […]

[2] = DSC thermal analysis: glass-transition temperature (Tg) and crystallization exotherm (Tc); assay type: physicochemical
Protocol: The lactose/norgestimate mixtures made as in Example 2 were subjected to thermal analysis, according to conventional Differential Scanning Calorimetry (DSC). […] Glass-transition temperature measurements generally entail trial runs on a DSC to obtain an optimal method for observing glass-transition events. […] Some amorphous norgestimate samples produce a weak Tg event at 122-123° C., while other samples shown an exothermic event, probably because of norgestimate crystallization. All of the norgestimate samples show a similar endothermic event at 226-228° C. The thermal gravimetric analysis (TGA) of samples show rapid weight loss at that temperature, therefore, the endotherm over 220° C. primarily corresponds to decomposition. The Merck Index lists the melting temperature of the crystalline norgestimate at 214-218° C. […] This thermal event (Tc) was used to measure the stability of different simulated drug products. The temperature of Tc- should be higher if norgestimate is stabilized by lactose.

[3] = PXRD pattern of norgestimate:lactose mixtures after milling; assay type: physicochemical; conditions: milled 20 minutes, mill type not specified at the place
Protocol: Research efforts were thus made to generate the non-crystalline form of norgestimate in the presence and absence of lactose via physical and mechanical processes. Various mixtures of norgestimate and lactose were prepared. To permit qualitative or semi-quantitative analysis, the ingredients were thoroughly mixed in ratios of 1:1 and 1:9 by either dissolving them in a co-solvent mixture or by co-grinding. Qualitative assessment of the degree of crystallinity was performed employing Powder X-Ray Diffractometry (PXRD).
Mixtures of norgestimate and lactose, in amorphous and crystalline forms, were milled for 20 minutes. The amorphous state of each ingredient and of the mixture was confirmed by powder x-ray pattern diffraction (PXRD).

[4] = Physical stability (recrystallization) of amorphous materials in humidity chambers, followed by PXRD; conditions: for Stability of Amorphous Norgestimate (onset of norgestimate recrystallization), 0% RH: 0% RH humidity chamber; for Stability of Amorphous Norgestimate (onset of norgestimate recrystallization), 0% RH / Stability of Amorphous Norgestimate (onset of norgestimate recrystallization), 31% RH / Stability of Amorphous Norgestimate (onset of norgestimate recrystallization), 76% RH: PXRD; for Stability of Amorphous Norgestimate (onset of norgestimate recrystallization), 31% RH: 31% RH humidity chamber; for Stability of Amorphous Norgestimate (onset of norgestimate recrystallization), 76% RH: 76% RH humidity chamber
[5] = Dissolution of norgestimate co-milled with lactose 1:9 in 100 ml 0.05% Tween 20 as a function of storage time; assay type: physicochemical; conditions: for Norgestimate Concentration Time = 0 Days: storage 0 days; for Norgestimate Concentration Time = 44 Days: stored 44 days at 40° C./75% RH
[6] = Dissolution of norgestimate from tablets manufactured by dry processing, pilot and production scale; assay type: physicochemical; conditions: dry-processed tablets
Protocol: Differences in the dissolution behavior of norgestimate from tablets manufactured by dry processing on both a pilot scale and a production scale were also evaluated. The minimum mechanical energy of 0.1 hp-min/kg can be imparted in a dry process using a geometric tumbler blender equipped for additional mixing energy with blades or choppers. A progestin such as norgestimate can be combined with lactose and additives. Increasing the length of processing time with the blades or choppers in use would impart sufficient energy to produce the forms identified in this invention. […] The important of dissolution rate as a function of mixing time is also noted.

[7] = Dissolution of norgestimate from tablets manufactured by wet processing, initial and after accelerated storage; assay type: physicochemical; conditions: for Percent Norgestimate Dissolved in 30 Minutes, 1 month 40° C./75% RH: wet-processed tablets stored unprotected; for Percent Norgestimate Dissolved in 30 Minutes, Initial: wet-processed tablets
Excerpt: The data in Table 4 further support the existence of a high energy form of norgestimate in the presence of lactose. […] Like the data reported in Table 2, dissolution properties are dependent on storage conditions. However it is apparent that the extent of such changes is further dependent on the mixing energetics imparted during the process.

Norgestimate concentration dissolved ([1]; dissolution time 5 min): 0.43 µg/mL
Norgestimate concentration dissolved ([1]; dissolution time 60 min): 0.81 µg/mL
Norgestimate concentration dissolved ([1]; dissolution time 140 min): 1.36 µg/mL
Compound: C#C[C@]1(OC(C)=O)CC[C@H]2[C@@H]3CCC4=CC(=NO)CC[C@@H]4[C@H]3CC[C@@]21CC [Crystalline Norgestimate, norgestimate]

Tg (glass-transition temperature) [2]: 114-115 °C
Compound: OC[C@H]1O[C@@H](O[C@H]2[C@H](O)[C@@H](O)C(O)O[C@@H]2CO)[C@H](O)[C@@H](O)[C@H]1O (stereo partly shown) [Amorphous lactose, lactose]

Solid-state form of lactose after milling with norgestimate (PXRD) [3]: partially crystalline
Compound: OC[C@H]1O[C@@H](O[C@H]2[C@H](O)[C@@H](O)C(O)O[C@@H]2CO)[C@H](O)[C@@H](O)[C@H]1O (stereo partly shown) [lactose]

Stability of Amorphous Norgestimate (onset of norgestimate recrystallization), 0% RH [4]: <3 days
Stability of Amorphous Norgestimate (onset of norgestimate recrystallization), 31% RH [4]: <1 day days
Stability of Amorphous Norgestimate (onset of norgestimate recrystallization), 76% RH [4]: <1 day days
Time to recrystallization of norgestimate ([4]; in the absence of lactose, room temperature, 0% RH chamber): ≤ 3 days
Time norgestimate remained partially crystalline ([4]; norgestimate co-milled with lactose 1:9, approximately 40° C. at 75% RH): at least 44 days
Norgestimate Concentration Time = 0 Days ([5]; dissolution time 10 min): 5.3 µg/mL
Norgestimate Concentration Time = 44 Days ([5]; dissolution time 10 min): 2.4 µg/mL
Norgestimate Concentration Time = 0 Days ([5]; dissolution time 20 min): 5.1 µg/mL
Norgestimate Concentration Time = 44 Days ([5]; dissolution time 20 min): 5.2 µg/mL
Norgestimate Concentration Time = 0 Days ([5]; dissolution time 30 min): 6.2 µg/mL
Norgestimate Concentration Time = 44 Days ([5]; dissolution time 30 min): 6.5 µg/mL
Norgestimate Concentration Time = 0 Days ([5]; dissolution time 60 min): 8.7 µg/mL
Norgestimate Concentration Time = 44 Days ([5]; dissolution time 60 min): 5.9 µg/mL
Norgestimate Concentration Time = 0 Days ([5]; dissolution time 240 min): 10 µg/mL
Norgestimate Concentration Time = 44 Days ([5]; dissolution time 240 min): 6.7 µg/mL
Norgestimate Concentration Time = 0 Days ([5]; dissolution time 720 min): 10.3 µg/mL
Norgestimate Concentration Time = 44 Days ([5]; dissolution time 720 min): 7.3 µg/mL
Percent Norgestimate Dissolved in 20 Minutes ([6]; pilot scale, mixing time 5 minutes): 78.4%
Percent Norgestimate Dissolved in 20 Minutes ([6]; pilot scale, mixing time 10 minutes): 85%
Percent Norgestimate Dissolved in 20 Minutes ([6]; pilot scale, mixing time 20 minutes): 88.5%
Percent Norgestimate Dissolved in 20 Minutes ([6]; pilot scale, mixing time 30 minutes): 97.4%
Percent Norgestimate Dissolved in 20 Minutes ([6]; pilot scale, mixing time 33 minutes): 93.6%
Percent Norgestimate Dissolved in 20 Minutes ([6]; pilot scale, mixing time […]): 74.9%
Percent Norgestimate Dissolved in 20 Minutes ([6]; production scale, mixing time 4.8 minutes): 64.7%
Percent Norgestimate Dissolved in 20 Minutes ([6]; production scale, mixing time 12 minutes): 81.2%
Percent Norgestimate Dissolved in 20 Minutes ([6]; production scale, mixing time 15 minutes): 90.3%
Percent Norgestimate Dissolved in 20 Minutes ([6]; production scale, mixing time 30 minutes): 92.8%
Percent Norgestimate Dissolved in 20 Minutes ([6]; production scale, mixing time 45 minutes): 96.2%
Percent Norgestimate Dissolved in 20 Minutes ([6]; production scale, mixing time 60 minutes): 97.4%
Percent Norgestimate Dissolved in 20 Minutes ([6]; production scale, mixing time 75 minutes): 97.2%
Solid-state form of norgestimate after milling with lactose (PXRD) [3]: non-crystalline
Percent Norgestimate Dissolved in 30 Minutes, 1 month 40° C./75% RH ([7]; blend time 0 minutes): 36%
Percent Norgestimate Dissolved in 30 Minutes, 1 month 40° C./75% RH ([7]; blend time 2* minutes): 45%
Percent Norgestimate Dissolved in 30 Minutes, 1 month 40° C./75% RH ([7]; blend time 20 minutes): 45%
Percent Norgestimate Dissolved in 30 Minutes, 1 month 40° C./75% RH ([7]; blend time 40 minutes): 46%
Percent Norgestimate Dissolved in 30 Minutes, 1 month 40° C./75% RH ([7]; blend time 60 minutes): 85%
Percent Norgestimate Dissolved in 30 Minutes, Initial ([7]; blend time 0 minutes): 75.4%
Percent Norgestimate Dissolved in 30 Minutes, Initial ([7]; blend time 2* minutes): 91%
Percent Norgestimate Dissolved in 30 Minutes, Initial ([7]; blend time 20 minutes): 90.1%
Percent Norgestimate Dissolved in 30 Minutes, Initial ([7]; blend time 40 minutes): 92.6%
Percent Norgestimate Dissolved in 30 Minutes, Initial ([7]; blend time 60 minutes): 94.5%
Compound: C#C[C@]1(OC(C)=O)CC[C@H]2[C@@H]3CCC4=CC(=NO)CC[C@@H]4[C@H]3CC[C@@]21CC (mixture of isomers) [Norgestimate, norgestimate]

Stability of Amorphous Norgestimate (onset of norgestimate recrystallization), 0% RH [4]: < 3 days
Stability of Amorphous Norgestimate (onset of norgestimate recrystallization), 31% RH [4]: less than 1 days
Stability of Amorphous Norgestimate (onset of norgestimate recrystallization), 76% RH [4]: less than 1 days
Time to complete recrystallization of amorphous norgestimate ([4]; room temperature, 0%, 31% and 76% RH (all conditions tested)): ≤ 3 days
Tc (crystallization of norgestimate) [2]: 105 °C
Tg (glass-transition temperature) [2]: 122-123 °C
Norgestimate concentration dissolved ([1]; dissolution time 5 min): 0.44 µg/mL
Norgestimate concentration dissolved ([1]; dissolution time 60 min): 1.38 µg/mL
Norgestimate concentration dissolved ([1]; dissolution time 120 min): 1.88 µg/mL
Compound: C#C[C@]1(OC(C)=O)CC[C@H]2[C@@H]3CCC4=CC(=NO)CC[C@@H]4[C@H]3CC[C@@]21CC (mixture of isomers) [Amorphous Norgestimate, norgestimate]
